Where a name gives a salt, the structure may show the parent alone.

Drawing on patent publication EP0298135A1, “Phenylalanine derivative and proteinase inhibitor” (Okamoto, Shosuke, priority 1987, dated 1989), this text covers IC50 for 17 compounds.

What all share (type): biochemical
For experiment [1], the target named is T1, human plasmin (Homo sapiens, UniProt P00747). Briefly: Antiplasmin activity: inhibition of S-2251 decomposition. The following applies: Table 2; substrate S-2251, pH 7.4, 37°C; read-out: Plasmin S-2251 (concentration I₅₀). As for the experimental part:
(ii) Determination of inhibition activity on S-225l decomposition
An inhibitor sample is dissolved in a 0.05 M Tris-hydrochloric acid buffer solution (pH = 7.4) to bring the total volume to 400 µl. To this solution, 50 µl of a 3 mM S-225l solution is added and the mixture is incubated at a temperature of 37°C for 5 minutes in a constant temperature bath. Then 50 µl of a 0.2 casein unit/ml human plasmin is added and the mixture is incubated at a temperature of 37°C for 4 minutes. Thereafter, the reaction is stopped by adding 50 µl of 50% acetic acid.
Thus, the concentration I₅₀ (µmol) of the inhibitor sample, at which the absorbance is one half (i.e., l/2) of that obtained in the absence of the inhibitor, is determined.

Experiment [2] addresses T2, bovine trypsin (Bos taurus, UniProt P00760).
T2 sequence (P00760 24-246): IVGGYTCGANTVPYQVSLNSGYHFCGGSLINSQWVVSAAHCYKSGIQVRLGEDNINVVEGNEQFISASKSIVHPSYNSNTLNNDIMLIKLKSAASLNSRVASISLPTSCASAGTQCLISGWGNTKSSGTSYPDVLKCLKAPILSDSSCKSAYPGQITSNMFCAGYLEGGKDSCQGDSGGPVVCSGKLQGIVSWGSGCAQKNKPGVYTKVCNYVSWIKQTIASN
Kind of experiment: Antitrypsin activity: inhibition of S-2238 decomposition. The following applies: Table 2; substrate S-2238, pH 8.1, 37°C; read-out: Trypsin S-2238 (concentration I₅₀). As for the experimental part: Determination of inhibition activity against S-2238 decomposition An inhibitor sample is dissolved in a 0.05 M Tris-imidazole buffer solution (pH = 8.l) and l25 µl of a l mM S-2238 solution is added to bring the total volume to l.20 ml. The mixture is incubated at a temperature of 37°C for 5 minutes in a constant temperature bath. To this mixture, 0.05 ml of bovine trypsin is added and the absorbance, at 405 nm, of the p-nitroaniline formed per minute is determined at a temperature of 37°C by using the so-called initial velocity method. Thus, the concentration I₅₀ (µmol) of the inhibitor sample, at which the absorbance is one half (i.e., l/2) of that obtained in the absence of the inhibitor sample, is determined.

In experiment [3] the target is human urokinase (Homo sapiens, UniProt P00749). Kind of experiment: Antiurokinase activity: inhibition of S-2444 decomposition. Conditions: Table 2; substrate S-2444, pH 8.8, 37°C; read-out: Urokinase S-2444 (concentration I₅₀). As for the experimental part:
Determination of inhibition activity for S-2444 decomposition
An inhibitor sample is dissolved in a 0.05 M Tris-hydrochloric acid buffer solution (pH = 8.8) to bring the total volume to 400 µl. To this solution, 50 µl of a l mM S-2444 solution is added and the mixture is incubated at a temperature of 37°C for 5 minutes in a constant temperature bath. Then 50 µl of a 500 unit/ml human urokinase is added and the mixture is incubated at a temperature of 37°C for 5 minutes. Thereafter, 50 µl of 50% acetic acid is added to terminate the reaction. The absorbance of the p-nitroaniline formed in the reaction mixture is measured at 405 nm. Thus, the concentration I₅₀ (µmol) of the inhibitor sample, at which the absorbance is one half (i.e., l/2) of that obtained in the absence of the inhibitor sample, is determined.

Experiment [4] has as its target human plasma kallikrein (Homo sapiens, UniProt P03952). Briefly: Anti-plasma kallikrein activity: inhibition of S-2302 decomposition. The following applies: Table 2; substrate S-2302, pH 7.8, 37°C; read-out: Plasma Kallikrein S-2302 (concentration I₅₀). As for the experimental part: An inhibitor sample is dissolved in a 0.05 M Tris-hydrochloric acid buffer solution (pH = 7.8) to bring the total volume to 400 µl. […] Then, 50 µl of a 0.l2 unit/ml human plasma kallikrein is added and the mixture is incubated at a temperature of 37°C for 5 minutes. Thereafter, 50 µl of 50% acetic acid is added to terminate the reaction. […] Thus, the concentration I₅₀ (µmol) of the inhibitor sample, at which the absorbance is one half (i.e., l/2) of that obtained in the absence of the inhibitor sample, is determined.

The target in experiment [5] is T3, bovine thrombin (Bos taurus, UniProt P00735). Briefly: Antithrombin activity: inhibition of fibrin formation from fibrinogen. As for the experimental part:
(i) Determination of inhibition activity against fibrin formation
An inhibitor sample is dissolved in a 0.l8 M borate-physiological salt buffer solution (pH = 7.4) to bring the total volume to 500 µl. To this solution, 400 µl of a 0.2% bovine fibrinogen solution and l00 µl of a 4 unit/ml bovine thrombin solution are added at a temperature of 37°C in a constant temperature bath. Thus, a coagulation time is determined. The inhibitor concentration I₅₀ (µmol), at which the coagulation time obtained in the absence of the inhibitor is extended twice, is determined.

Experiment [6] concerns the target T1, human plasmin. Briefly: Antiplasmin activity: inhibition of fibrin decomposition. Conditions: Table 2; concentration at which fibrin dissolution time is extended twice, pH 7.4, 37°C; read-out: Plasmin Fibrin (concentration I₅₀). The method, then: (i) Determination of inhibition activity on fibrin decomposition
An inhibitor sample is dissolved in a 0.l8 M borate-physiological salt buffer solution (pH = 7.4) to bring the total volume to 600 µl. To this buffer solution, 200 µl of a 0.2% bovine fibrinogen, l00 µl of a 0.3 casein unit/ml human plasmin solution, and l00 µl of a 50 unit/ml bovine thrombin solution, all dissolved in the above-mentioned buffer, are added at a temperature of 37°C in a constant temperature bath. The dissolution time of the fibrin mass formed above is then determined.

In experiment [7] the target is T3, bovine thrombin. Kind of experiment: Antithrombin activity: inhibition of S-2238 decomposition. As for the experimental part: (ii) Determination of inhibition activity on S-2238 decomposition
An inhibitor sample is dissolved in a 0.05 M Tris-hydrochloric acid buffer solution (pH = 8.3) to bring the a total volume to 400 µl. To this solution, 50 µl of a 0.2 mM S-2238 solution is added and the mixture is incubated at a temperature of 37°C for 5 minutes in a constant temperature bath. Then 50 µl of a 0.2 unit/ml bovine thrombin solution is added thereto and the absorbance, at 405 nm, of the p-nitroaniline formed per minute is determined at a temperature of 37°C by using the so-called initial velocity method. Thus, the concentration I₅₀ (µmol) of the inhibitor sample, at which the absorbance is one half (i.e., l/2) of that obtained in the absence of the inhibitor sample, is determined.

Sequence of human plasma kallikrein (P03952 391-638 limits assumed): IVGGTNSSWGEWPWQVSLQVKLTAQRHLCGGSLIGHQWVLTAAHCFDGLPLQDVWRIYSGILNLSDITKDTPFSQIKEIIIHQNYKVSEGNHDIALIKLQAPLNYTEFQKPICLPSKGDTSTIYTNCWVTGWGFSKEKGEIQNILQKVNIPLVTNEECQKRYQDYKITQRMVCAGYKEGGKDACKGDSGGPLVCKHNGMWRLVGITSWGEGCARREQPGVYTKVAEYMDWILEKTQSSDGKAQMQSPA
Sequence of human plasma kallikrein (P03952 20-390 partner limits assumed): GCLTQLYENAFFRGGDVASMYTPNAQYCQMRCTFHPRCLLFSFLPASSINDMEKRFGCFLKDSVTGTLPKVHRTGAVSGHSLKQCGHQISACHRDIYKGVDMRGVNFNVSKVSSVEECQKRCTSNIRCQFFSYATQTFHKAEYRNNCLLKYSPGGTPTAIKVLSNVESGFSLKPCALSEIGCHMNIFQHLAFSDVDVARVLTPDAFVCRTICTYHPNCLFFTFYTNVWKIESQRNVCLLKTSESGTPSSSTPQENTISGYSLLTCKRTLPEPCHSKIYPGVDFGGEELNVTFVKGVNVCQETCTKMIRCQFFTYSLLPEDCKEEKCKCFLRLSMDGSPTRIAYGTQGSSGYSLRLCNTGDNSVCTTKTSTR
T1 sequence (P00747 581-810 limits assumed): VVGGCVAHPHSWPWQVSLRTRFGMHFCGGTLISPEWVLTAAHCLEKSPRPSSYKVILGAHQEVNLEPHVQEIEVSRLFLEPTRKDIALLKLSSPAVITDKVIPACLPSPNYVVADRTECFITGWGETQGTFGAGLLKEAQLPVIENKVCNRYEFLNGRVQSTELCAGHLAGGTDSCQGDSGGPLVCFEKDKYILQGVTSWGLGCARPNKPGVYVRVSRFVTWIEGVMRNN
T1 sequence (P00747 97-580 partner limits assumed): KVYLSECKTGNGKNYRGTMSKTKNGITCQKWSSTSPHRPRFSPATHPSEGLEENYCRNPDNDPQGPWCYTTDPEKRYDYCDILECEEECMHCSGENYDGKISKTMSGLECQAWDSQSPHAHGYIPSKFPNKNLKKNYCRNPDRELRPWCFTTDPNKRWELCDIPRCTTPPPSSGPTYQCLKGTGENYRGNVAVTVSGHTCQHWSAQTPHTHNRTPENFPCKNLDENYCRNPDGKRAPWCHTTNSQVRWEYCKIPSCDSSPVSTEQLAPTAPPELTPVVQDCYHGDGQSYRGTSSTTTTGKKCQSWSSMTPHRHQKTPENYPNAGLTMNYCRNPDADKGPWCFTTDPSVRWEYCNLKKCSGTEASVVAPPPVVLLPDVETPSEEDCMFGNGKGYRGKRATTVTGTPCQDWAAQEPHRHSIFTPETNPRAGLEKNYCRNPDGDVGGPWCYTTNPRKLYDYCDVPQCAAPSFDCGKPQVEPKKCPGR

In the case of `NCCCCCC(=O)N[C@@H](Cc1ccccc1)C(=O)Nc1ccc(C(=O)c2ccccc2)cc1` [compound 4], the IC50 in experiment [1] is 39 µM; in experiment [2] it was more than 200 µM.

For the compound `N=C(N)Nc1ccc(C(=O)N[C@@H](Cc2ccc([N+](=O)[O-])cc2)C(=O)Nc2ccc(C(=O)c3ccccc3)cc2)cc1` [Compound No. 23, N-(4-guanidinobenzoyl)-4-nitro-L-phenylalaninine 4-benzoylanilide methanesulfonate], the IC50 came to 11 µM in experiment [3], 11 µM in experiment [4], 89 µM in experiment [1] and 0.43 µM in experiment [2].

As for `CN(Cc1ccccc1)C(=O)[C@H](Cc1ccc(OCc2ccccc2)cc1)NC(=O)c1ccc(NC(=N)N)cc1` [compound 28], the IC50 in experiment [4] is 170 µM; in experiment [1], 140 µM; in experiment [2], 110 µM.

In the case of `CN(Cc1ccncc1)C(=O)[C@H](Cc1ccccc1)NC(=O)c1ccc(NC(=N)N)cc1` [compound 19], the IC50 in experiment [4] was 1000 µM; in experiment [1], more than 1000 µM; in experiment [5], more than 1000 µM; in experiment [6] it was more than 1000 µM.

`CN(Cc1ccncc1)C(=O)[C@H](Cc1ccccc1)NC(=O)CCCCCN` [Compound No. 6, N-(6-aminocaproyl)-L-phenylalanine N-methyl-(4-pycoryl)amide dihydrochloride]: the IC50 in experiment [7] is more than 500 µM; in experiment [3], more than 500 µM; in experiment [4], more than 1000 µM; in experiment [1], more than 1000 µM; in experiment [6], more than 1000 µM.

In the case of `N=C(N)NC[C@H]1CC[C@H](C(=O)N[C@@H](Cc2ccc([N+](=O)[O-])cc2)C(=O)Nc2ccc(C(=O)c3ccccc3)cc2)CC1` [compound 31, N-(trans-4-guanidinomethylcyclohexylcarbonyl)-4-nitro-L-phenylalanine 4-benzoylanilide methane sulfonate], the IC50 in experiment [3], in experiment [4] and in experiment [1] was more than 100 µM in each case.

Turning to “N-(4-guanidinobenzoyl)-L-phenylalanine 4-cis/trans-methylcyclohexylamide hydrochloride [Compound No. 20]”, the IC50 was 310 µM in experiment [3]; 45 µM in experiment [4]; 140 µM in experiment [1]; more than 100 µM in experiment [5] (Table 2, concentration at which coagulation time is extended twice, bovine fibrinogen, pH 7.4, 37°C, read-out: Thrombin Fibrinogen (concentration I₅₀)); 15 µM in experiment [2]; 73 µM in experiment [6].

Consider `COc1ccc(NC(=O)[C@H](Cc2ccccc2)NC(=O)c2ccc(CCN)cc2)cn1` [compound 10, N-[4-(2-aminoethyl)benzoyl]-L-phenylalanine 3-(6-methoxypyridyl)amide dihydrochloride], for which the IC50 in experiment [4] amounted to 85 µM; in experiment [1], 830 µM; in experiment [6] it was 970 µM.

As to `CC(=O)c1ccc(NC(=O)[C@H](Cc2ccccc2)NC(=O)c2ccc(C(=N)N)cc2)cc1` [compound 11, N-(4-amidinobenzoyl)-L-phenylalanine 4-acetylanilide hydroiodic acid], the IC50 in experiment [3] is 13 µM; in experiment [4], 0.8 µM; in experiment [1], 23 µM; in experiment [2] it was 3.6 µM; in experiment [6], 21 µM.

On to `NCCc1ccc(C(=O)N[C@@H](Cc2ccccc2)C(=O)Nc2ccc(C(=O)c3ccccc3)cc2)cc1` [compound 9], for which the IC50 is 100 µM in experiment [3], 31 µM in experiment [4], 30 µM in experiment [1] and 16 µM in experiment [2].

As for `CC(=O)c1ccc(NC(=O)[C@H](Cc2ccc(OCc3ccccc3)cc2)NC(=O)c2ccc(C(=N)N)cc2)cc1` [compound 12, N-(4-amidinobenzoyl)-4-benzyloxy-L-phenylalanine 4-acetylanilide hydroiodic acid], the IC50 is 4 µM in experiment [3]; 0.3 µM in experiment [4]; 2.2 µM in experiment [1]; 0.75 µM in experiment [2]; 0.98 µM in experiment [6].

Consider `Cc1ccc(NC(=O)[C@H](Cc2ccccc2)NC(=O)c2ccc(NC(=N)N)cc2)cc1` [compound 13, N-(4-guanidinobenzoyl)-L-phenylalanine 4-methylanilide hydrochloride], for which the IC50 was 420 µM in experiment [3]; 4.2 µM in experiment [4]; more than 1000 µM in experiment [1]; 1.3 µM in experiment [2]; more than 200 µM in experiment [6].

As for `COc1ccc(NC(=O)[C@H](Cc2ccc(OCc3ccccc3)cc2)NC(=O)c2ccc(NC(=N)N)cc2)cn1` [compound 25], the IC50 is 12 µM in experiment [4]; 160 µM in experiment [1]; more than 100 µM in experiment [5]; 17 µM in experiment [2]; 48 µM in experiment [6].

As to `N=C(N)Nc1ccc(C(=O)N[C@@H](Cc2ccccc2)C(=O)Nc2ccc(C(=O)c3ccccc3)cc2)cc1` [compound 16], the IC50 was found to be 40 µM in experiment [3], 3.6 µM in experiment [4] and 1.5 µM in experiment [2].

As for `N=C(N)NCCCC(=O)N[C@@H](Cc1ccc([N+](=O)[O-])cc1)C(=O)Nc1ccc(C(=O)c2ccccc2)cc1` [compound 29], the IC50 in experiment [4] is 56 µM; in experiment [1], 120 µM; in experiment [2], 17 µM; in experiment [6], 82 µM.

As to `NCCCC(=O)N[C@@H](Cc1ccccc1)C(=O)Nc1ccc(C(=O)c2ccccc2)cc1` [compound 1], the IC50 was more than 200 µM in experiment [7] and 23 µM in experiment [1].

As for `Cc1ccc(NC(=O)[C@H](Cc2ccc(OCc3ccccc3)cc2)NC(=O)c2ccc(NC(=N)N)cc2)cc1C` [compound 24], the IC50 in experiment [3] worked out at 240 µM; in experiment [4], 5.7 µM; in experiment [1], 21 µM; in experiment [2], 9.1 µM; in experiment [6], 16 µM.
